From PubChem BioAssay (NCI)
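How tested: cells in 96-well plates exposed to compound for 48 hours at five concentrations. GI50 is the concentration that inhibits growth by half. TGI: concentration producing complete growth inhibition.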

Test system: HCT-15 colon
Assay: inhibition of tumour cell growth, NCI panel, 48 h

SMILES | TGI [µM]
CCOC(=O)c1nnc2c(C(=O)OCC)c3ccccc3n2c1N | > 100
S=c1sc2c(Cl)nc(Cl)nc2n1-c1ccccc1 | 32
CC12CC(c3ccccc3O1)C(C(=O)Nc1ccc(Cl)cc1Cl)C(=O)N2 (centres undefined) | > 100
COC(=O)c1cc2ccc(N)nc2[nH]c1=O | > 100
COC(=O)C1=C(O)C(C(=O)OC)[C@]2(O)[C@H](C(=O)OC)[C@H]1C[C@@H](c1ccc(C(F)(F)F)cc1)[C@H]2C(=O)OC (some centres undefined) | > 100
CCOC(=O)C12OC(CCC1=O)C(C(=O)OC)=C2C(=O)OC (centres undefined) | > 10
NNC(=O)c1n[nH]nc1C(=O)NN | > 100
O=C(O)[C@@H]1CCS(=O)(=O)N1 | > 100
CCOC(=O)NC(Nc1ccc(S(=O)(=O)Nc2nc(C)cc(C)n2)cc1)(C(=O)OCC)C(F)(F)F (centres undefined) | > 100
CC(C)(C)OC(=O)[C@H]1CCC(=S)N1Cc1ccccc1 | > 100
COc1ccc(S(=O)(=O)c2nnc(S(=O)(=O)Cc3ccccc3)s2)cc1 | 50.5
O=[N+]([O-])c1ccc2c(c1)C1=C(CO2)Cc2ccccc2O1 | 31.2
Nc1nc(SC/C=C/c2ccccc2)c2[nH]cnc2n1 | > 100
CSc1nc(Nc2cccc(C(F)(F)F)c2)c2c(N)nn(C)c2n1 | > 100
CCCCNC(=S)Nc1nc(C(=O)NNC(=S)Nc2ccccc2)cs1 | > 100
CC(=O)c1c(C)n([O-])c2cc(Cl)c(Cl)cc2[n+]1=O | > 100
O=c1c(/C=C/c2c(O)ccc3ccccc23)nnc2sc(-c3cccc(Br)c3)nn12 | 64.7
CC(=O)Oc1c2c(c(O)c3ccccc13)C(n1cnc3c(ncn3C3OC(CO)C4OC(C)(C)OC43)c1=N)CCC2 (centres undefined) | 29.3
CN(C)CCC(=O)c1ccccc1 | 46.9
CCOc1ccccc1NC(=O)C(=O)CC(=O)c1sc(Nc2nnc(-c3ccc(Cl)c(Cl)c3)o2)nc1C | > 100

Test system: SF-268 CNS
Assay: inhibition of tumour cell growth, NCI panel, 48 h

SMILES | GI50 [µM] | TGI [µM]
O=c1cc(-c2cccc3ccccc23)[nH]c2ncccc12 | 10.1 | > 100
CN1CCOC(c2ccccc2)O1 (centres undefined) |  | > 100
O=C(/C=C/c1cc2ccccc2o1)N1CCN(c2ccccn2)CC1 |  | > 100
CCCNC(=S)NNC(=O)CSc1nc(-c2ccccc2)c(-c2ccccc2)[nH]1 |  | > 100
CC(=O)c1sc(Nc2nnc(-c3ccc(-c4nnc(Nc5nc(C)c(C(C)=O)s5)o4)cc3)o2)nc1C |  | > 100
O=c1[nH]nc(Cc2ccccc2)n1/N=C/c1ccccc1O |  | > 100
CC1c2c(Cl)nc3ccccc3c2Oc2c1c(Cl)nc1ccccc21 |  | > 100
COC1(OC)C(N(C)C)=C(Cl)C(=O)/C1=C/C=O |  | > 100
CC(=O)Oc1ccc2c(C)cc(=O)oc2c1OC(C)=O |  | > 100
N#Cc1c2ccccc2cn1-c1ccc(F)cc1 |  | 99.5
Nc1nc(N)c2c3c(cnc2n1)CC(c1ccccc1)CC3 (centres undefined) |  | 58.5
Cc1ccccc1N1C(=O)C2C=CC(n3[nH]c(=O)n(Cc4ccccc4)c3=O)CC2C1=O (centres undefined) |  | > 100
CSc1ncnc2c1ncn2CCC(=O)OC(C)(C)C |  | > 100
N#Cc1c(N)nc2n[nH]c(N)c2c1-c1ccc(Cl)cc1 |  | > 100
COC(=O)C1=C(C(=O)NNc2ccccc2)N(c2cccnc2Cl)C(c2ccccc2)=CC1c1ccccc1 (centres undefined) |  | > 100
CCOC(=O)c1nnc2c(C(=O)OCC)c3ccccc3n2c1N |  | > 100
S=c1sc2c(Cl)nc(Cl)nc2n1-c1ccccc1 |  | 23.2

SMILES | GI50 [µM] | TGI [µM]
CC12CC(c3ccccc3O1)C(C(=O)Nc1ccc(Cl)cc1Cl)C(=O)N2 (centres undefined) |  | > 100
COC(=O)c1cc2ccc(N)nc2[nH]c1=O |  | > 100
COC(=O)C1=C(O)C(C(=O)OC)[C@]2(O)[C@H](C(=O)OC)[C@H]1C[C@@H](c1ccc(C(F)(F)F)cc1)[C@H]2C(=O)OC (some centres undefined) |  | > 100
CCOC(=O)C12OC(CCC1=O)C(C(=O)OC)=C2C(=O)OC (centres undefined) |  | > 10
NNC(=O)c1n[nH]nc1C(=O)NN |  | > 100
O=C(O)[C@@H]1CCS(=O)(=O)N1 |  | > 100
CCOC(=O)NC(Nc1ccc(S(=O)(=O)Nc2nc(C)cc(C)n2)cc1)(C(=O)OCC)C(F)(F)F (centres undefined) |  | > 100
COc1ccc(S(=O)(=O)c2nnc(S(=O)(=O)Cc3ccccc3)s2)cc1 |  | > 100
O=[N+]([O-])c1ccc2c(c1)C1=C(CO2)Cc2ccccc2O1 |  | 63.5
Nc1nc(SC/C=C/c2ccccc2)c2[nH]cnc2n1 |  | > 100
CSc1nc(Nc2cccc(C(F)(F)F)c2)c2c(N)nn(C)c2n1 |  | > 100
CCCCNC(=S)Nc1nc(C(=O)NNC(=S)Nc2ccccc2)cs1 |  | > 100
CC(=O)c1c(C)n([O-])c2cc(Cl)c(Cl)cc2[n+]1=O |  | > 100
O=c1c(/C=C/c2c(O)ccc3ccccc23)nnc2sc(-c3cccc(Br)c3)nn12 |  | > 100
CC(=O)Oc1c2c(c(O)c3ccccc13)C(n1cnc3c(ncn3C3OC(CO)C4OC(C)(C)OC43)c1=N)CCC2 (centres undefined) |  | 30.7
CN(C)CCC(=O)c1ccccc1 |  | > 74.7
CCOc1ccccc1NC(=O)C(=O)CC(=O)c1sc(Nc2nnc(-c3ccc(Cl)c(Cl)c3)o2)nc1C |  | > 100

Test system: SNB-75 CNS
Assay: inhibition of tumour cell growth, NCI panel, 48 h

SMILES | TGI [µM]
CN1CCOC(c2ccccc2)O1 (centres undefined) | > 100
CCCNC(=S)NNC(=O)CSc1nc(-c2ccccc2)c(-c2ccccc2)[nH]1 | > 100
CC1c2c(Cl)nc3ccccc3c2Oc2c1c(Cl)nc1ccccc21 | > 100
CC(=O)Oc1ccc2c(C)cc(=O)oc2c1OC(C)=O | > 100
N#Cc1c2ccccc2cn1-c1ccc(F)cc1 | 18.9
N#CCCN(C(=O)Nc1ccccc1)[C@H]1CCCC[C@@H]1N(C(=O)Nc1ccccc1)c1ccccc1 | > 100
Nc1nc(N)c2c3c(cnc2n1)CC(c1ccccc1)CC3 (centres undefined) | 35.9
Cc1ccccc1N1C(=O)C2C=CC(n3[nH]c(=O)n(Cc4ccccc4)c3=O)CC2C1=O (centres undefined) | > 100
CSc1ncnc2c1ncn2CCC(=O)OC(C)(C)C | > 100
COC(=O)C1=C(C(=O)NNc2ccccc2)N(c2cccnc2Cl)C(c2ccccc2)=CC1c1ccccc1 (centres undefined) | > 100
CCOC(=O)c1nnc2c(C(=O)OCC)c3ccccc3n2c1N | 67.3
S=c1sc2c(Cl)nc(Cl)nc2n1-c1ccccc1 | > 100
COC(=O)c1cc2ccc(N)nc2[nH]c1=O | > 100
COC(=O)C1=C(O)C(C(=O)OC)[C@]2(O)[C@H](C(=O)OC)[C@H]1C[C@@H](c1ccc(C(F)(F)F)cc1)[C@H]2C(=O)OC (some centres undefined) | 26.7
CCOC(=O)C12OC(CCC1=O)C(C(=O)OC)=C2C(=O)OC (centres undefined) | > 10
CCOC(=O)NC(Nc1ccc(S(=O)(=O)Nc2nc(C)cc(C)n2)cc1)(C(=O)OCC)C(F)(F)F (centres undefined) | > 100
CC(C)(C)OC(=O)[C@H]1CCC(=S)N1Cc1ccccc1 | > 100
COc1ccc(S(=O)(=O)c2nnc(S(=O)(=O)Cc3ccccc3)s2)cc1 | 31.8
O=[N+]([O-])c1ccc2c(c1)C1=C(CO2)Cc2ccccc2O1 | > 100
Nc1nc(SC/C=C/c2ccccc2)c2[nH]cnc2n1 | > 100
NC(=O)C12CC3CC(CC(F)(C3)C1)C2 | > 100
CSc1nc(Nc2cccc(C(F)(F)F)c2)c2c(N)nn(C)c2n1 | > 100
CCCCNC(=S)Nc1nc(C(=O)NNC(=S)Nc2ccccc2)cs1 | 91.1
CC(=O)Oc1c2c(c(O)c3ccccc13)C(n1cnc3c(ncn3C3OC(CO)C4OC(C)(C)OC43)c1=N)CCC2 (centres undefined) | 32.3
CN(C)CCC(=O)c1ccccc1 | > 71
CCOc1ccccc1NC(=O)C(=O)CC(=O)c1sc(Nc2nnc(-c3ccc(Cl)c(Cl)c3)o2)nc1C | > 100

Test system: EKVX NSCLC
Assay: inhibition of tumour cell growth, NCI panel, 48 h

SMILES | GI50 [µM] | TGI [µM]
O=c1cc(-c2cccc3ccccc23)[nH]c2ncccc12 | 0.0239 | > 100
CN1CCOC(c2ccccc2)O1 (centres undefined) |  | > 100
O=C(/C=C/c1cc2ccccc2o1)N1CCN(c2ccccn2)CC1 |  | > 100
CCCNC(=S)NNC(=O)CSc1nc(-c2ccccc2)c(-c2ccccc2)[nH]1 |  | 89.7
CC(=O)c1sc(Nc2nnc(-c3ccc(-c4nnc(Nc5nc(C)c(C(C)=O)s5)o4)cc3)o2)nc1C |  | > 100
O=c1[nH]nc(Cc2ccccc2)n1/N=C/c1ccccc1O |  | > 100
CC1c2c(Cl)nc3ccccc3c2Oc2c1c(Cl)nc1ccccc21 |  | > 100
CC(=O)Oc1ccc2c(C)cc(=O)oc2c1OC(C)=O |  | > 100
N#CCCN(C(=O)Nc1ccccc1)[C@H]1CCCC[C@@H]1N(C(=O)Nc1ccccc1)c1ccccc1 |  | > 100
Nc1nc(N)c2c3c(cnc2n1)CC(c1ccccc1)CC3 (centres undefined) |  | > 100
Cc1ccccc1N1C(=O)C2C=CC(n3[nH]c(=O)n(Cc4ccccc4)c3=O)CC2C1=O (centres undefined) |  | > 100
CSc1ncnc2c1ncn2CCC(=O)OC(C)(C)C |  | > 100
N#Cc1c(N)nc2n[nH]c(N)c2c1-c1ccc(Cl)cc1 |  | 44
COC(=O)C1=C(C(=O)NNc2ccccc2)N(c2cccnc2Cl)C(c2ccccc2)=CC1c1ccccc1 (centres undefined) |  | > 100
Nc1ncnc2c1ncn2[C@@H]1C[C@@H]1CO |  | > 100
CCOC(=O)c1nnc2c(C(=O)OCC)c3ccccc3n2c1N |  | > 100
S=c1sc2c(Cl)nc(Cl)nc2n1-c1ccccc1 |  | > 100
CC12CC(c3ccccc3O1)C(C(=O)Nc1ccc(Cl)cc1Cl)C(=O)N2 (centres undefined) |  | 50.2
COC(=O)c1cc2ccc(N)nc2[nH]c1=O |  | > 100
COC(=O)C1=C(O)C(C(=O)OC)[C@]2(O)[C@H](C(=O)OC)[C@H]1C[C@@H](c1ccc(C(F)(F)F)cc1)[C@H]2C(=O)OC (some centres undefined) |  | 32.4
CCOC(=O)C12OC(CCC1=O)C(C(=O)OC)=C2C(=O)OC (centres undefined) |  | > 10
O=C(O)[C@@H]1CCS(=O)(=O)N1 |  | > 100
CCOC(=O)NC(Nc1ccc(S(=O)(=O)Nc2nc(C)cc(C)n2)cc1)(C(=O)OCC)C(F)(F)F (centres undefined) |  | > 100
CC(C)(C)OC(=O)[C@H]1CCC(=S)N1Cc1ccccc1 |  | > 100
COc1ccc(S(=O)(=O)c2nnc(S(=O)(=O)Cc3ccccc3)s2)cc1 |  | 57.2
O=[N+]([O-])c1ccc2c(c1)C1=C(CO2)Cc2ccccc2O1 |  | > 100
Nc1nc(SC/C=C/c2ccccc2)c2[nH]cnc2n1 |  | > 100
